Each structure is given as a SMILES string. pIC50: −log10 of the molar value.

Data set [1] addresses T1, human 15-LO (Homo sapiens, UniProt P16050).
T1 construct: made in house; host or cells: Sf9 insect cells (baculovirus, Bac-to-Bac)
T1 sequence (P16050 1-662): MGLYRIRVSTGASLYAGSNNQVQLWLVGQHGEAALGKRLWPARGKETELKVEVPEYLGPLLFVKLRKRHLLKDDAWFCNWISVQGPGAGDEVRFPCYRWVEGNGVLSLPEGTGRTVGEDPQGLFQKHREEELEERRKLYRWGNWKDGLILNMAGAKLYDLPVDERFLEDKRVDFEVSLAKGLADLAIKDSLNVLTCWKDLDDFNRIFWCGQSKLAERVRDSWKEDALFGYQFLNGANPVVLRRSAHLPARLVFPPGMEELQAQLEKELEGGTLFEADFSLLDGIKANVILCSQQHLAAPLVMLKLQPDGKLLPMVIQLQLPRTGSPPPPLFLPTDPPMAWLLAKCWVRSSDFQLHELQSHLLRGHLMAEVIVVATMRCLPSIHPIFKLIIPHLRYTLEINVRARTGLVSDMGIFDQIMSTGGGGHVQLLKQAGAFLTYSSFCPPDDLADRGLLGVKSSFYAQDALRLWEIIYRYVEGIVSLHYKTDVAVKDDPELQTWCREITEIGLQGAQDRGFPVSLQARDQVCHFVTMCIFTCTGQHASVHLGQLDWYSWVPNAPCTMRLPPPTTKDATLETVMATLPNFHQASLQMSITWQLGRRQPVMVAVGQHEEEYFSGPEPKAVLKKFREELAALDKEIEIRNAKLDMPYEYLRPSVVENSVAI
Nature of the data set: Human Lysate 15-LO Assay (HUM15LO). The data set is classed as biochemical. The following applies: 15-LO catalyzed oxidation of linoleic acid, 15 minutes at 4° C. How it is done:
The HUM15LO assay measures inhibition of 15-LO catalyzed oxidation of linoleic acid to the hydroperoxy fatty acid 13-(S)HPODE, a conjugated diene. In the HUM15LO assay, a test compound was incubated with 15-LO enzyme in the presence of the linoleic acid substrate. For example, a known amount of a compound of the present invention and 100 μL of human 15-LO and 174 μM of linoleic acid in PBS containing 0.2% sodium cholate were incubated for 15 minutes at 4° C. The test reaction was stopped with 100 μL of mobile phase and 10 μL of triethyl phosphite. […] 13-HPODE was quantitated by comparing peak areas of individual samples with those from a standard curve generated using authentic 13-HODE. The test reaction was compared to a control reaction, which is identical to the test reaction except a test compound is not present. Percent inhibition was calculated as […], expressed as a percent.
Human 15-LO was generated in a recombinant 15-lipoxygenase bacculovirus expression system, using Gibco/BRL/Life Technologies' Bac-to-Bac expression reagents; T4 DNA ligase, Kanamycin, Gentamicin, tetracycline, penicillin, streptomycin, Bluo-gal, IPTC; DH10Bac competent cells, SOC, LB medium, Sf-900 II SFM media, Sf9 insect cells, Cell Fectin, and EcoRI, BamHI, and KpnI restriction enzymes.

Usually pIC50 stands for the negative decadic logarithm of the IC50, by convention in mol/L. Read a high pIC50 as a small IC50. The melting point is the temperature, or range, at which the solid turns liquid. `COc1ccc(-c2nc3cccnc3[nH]2)cc1NS(=O)(=O)c1cccs1` [Chemical Example 2, Thiophene-2-sulfonic acid [5-(3H-imidazo[4,5-b]pyridin-2-yl)-2-methoxy-phenyl]-amide] yielded a melting point of 252 to 254 °C. Besides, the pIC50 in data set [1] is 5.00.
The term inhibition denotes the percentage by which the read-out fell short of the control. A low value points to a weak effect. `COc1ccc(-c2nc3cccnc3[nH]2)cc1N` [Chemical Example 1, 5-(3H-imidazo[4,5-b]pyridin-2-yl)-2-methoxy-phenylamine]: the inhibition in data set [1] (at 10 μM) stood at 39%.

Values taken from patent US6943174B2, “6,5-Fused bicyclic heterocycles” (Warner-Lambert Company, priority 2000, dated 2005).
